Experimental data as given in ChEMBL document CHEMBL2375342, “Novel 5-(benzyloxy)pyridin-2(1H)-one derivatives as potent c-Met inhibitors” (Bioorg Med Chem Lett, 2013).
One block for each compound: values may come before it. Activity calls are given as the source filed them. No cut-off for these calls is given here.

Key:
[1] = biological target: T1, Hepatocyte growth factor receptor (Homo sapiens, UniProt P08581); test: Inhibition of c-MET (unknown origin) at 10 uM after 60 mins by ELISA relative to control
T1 sequence (P08581 whole entry): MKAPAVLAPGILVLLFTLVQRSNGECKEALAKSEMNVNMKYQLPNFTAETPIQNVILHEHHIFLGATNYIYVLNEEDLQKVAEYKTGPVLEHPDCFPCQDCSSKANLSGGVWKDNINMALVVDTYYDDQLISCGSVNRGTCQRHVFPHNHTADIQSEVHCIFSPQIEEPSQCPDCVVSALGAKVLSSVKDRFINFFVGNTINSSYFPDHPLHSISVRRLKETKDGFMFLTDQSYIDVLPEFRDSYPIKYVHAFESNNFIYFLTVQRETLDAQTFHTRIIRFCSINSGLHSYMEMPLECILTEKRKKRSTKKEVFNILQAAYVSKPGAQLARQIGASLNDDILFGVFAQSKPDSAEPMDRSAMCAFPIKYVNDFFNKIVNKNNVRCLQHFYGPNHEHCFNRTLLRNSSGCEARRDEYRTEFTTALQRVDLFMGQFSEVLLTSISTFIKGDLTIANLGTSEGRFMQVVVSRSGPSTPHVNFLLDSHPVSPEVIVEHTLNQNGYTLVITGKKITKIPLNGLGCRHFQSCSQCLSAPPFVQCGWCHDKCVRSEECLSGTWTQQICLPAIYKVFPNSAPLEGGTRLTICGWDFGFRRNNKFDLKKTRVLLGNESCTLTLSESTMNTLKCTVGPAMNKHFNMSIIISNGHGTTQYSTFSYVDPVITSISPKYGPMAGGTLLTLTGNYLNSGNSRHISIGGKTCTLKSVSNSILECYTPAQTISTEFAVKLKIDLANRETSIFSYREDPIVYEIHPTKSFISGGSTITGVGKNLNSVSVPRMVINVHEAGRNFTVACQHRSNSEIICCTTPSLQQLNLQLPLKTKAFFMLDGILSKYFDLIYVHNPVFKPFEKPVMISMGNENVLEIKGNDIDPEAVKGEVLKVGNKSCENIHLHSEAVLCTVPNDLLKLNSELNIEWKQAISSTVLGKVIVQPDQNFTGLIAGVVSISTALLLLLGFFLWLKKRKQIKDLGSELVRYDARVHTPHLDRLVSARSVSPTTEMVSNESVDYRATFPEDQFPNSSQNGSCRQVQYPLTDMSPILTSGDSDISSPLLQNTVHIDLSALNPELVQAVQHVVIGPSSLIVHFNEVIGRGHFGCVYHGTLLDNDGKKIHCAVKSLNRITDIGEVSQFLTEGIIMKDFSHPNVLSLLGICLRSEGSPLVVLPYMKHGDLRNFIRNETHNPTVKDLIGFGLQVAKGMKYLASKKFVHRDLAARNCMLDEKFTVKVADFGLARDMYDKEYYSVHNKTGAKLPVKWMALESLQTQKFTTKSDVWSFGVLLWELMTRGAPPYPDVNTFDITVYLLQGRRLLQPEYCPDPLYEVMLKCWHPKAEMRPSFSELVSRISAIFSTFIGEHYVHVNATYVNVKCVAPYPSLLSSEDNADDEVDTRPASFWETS

[2] = biological target: T1, Hepatocyte growth factor receptor; test: Inhibition of c-MET (unknown origin)
[3] = Antiproliferative activity in human EBC1 cells overexpressing c-MET after 72 hrs by sulforhodamine B assay; type: functional, cell-based; details: EBC-1, 72 h
[4] = biological target: T1, Hepatocyte growth factor receptor; test: Inhibition of c-MET (unknown origin) at 1 uM after 60 mins by ELISA
[5] = biological target: Proto-oncogene tyrosine-protein kinase receptor Ret (Homo sapiens, UniProt P07949); test: Inhibition of RET (unknown origin)
Chain of Proto-oncogene tyrosine-protein kinase receptor Ret (P07949 whole entry): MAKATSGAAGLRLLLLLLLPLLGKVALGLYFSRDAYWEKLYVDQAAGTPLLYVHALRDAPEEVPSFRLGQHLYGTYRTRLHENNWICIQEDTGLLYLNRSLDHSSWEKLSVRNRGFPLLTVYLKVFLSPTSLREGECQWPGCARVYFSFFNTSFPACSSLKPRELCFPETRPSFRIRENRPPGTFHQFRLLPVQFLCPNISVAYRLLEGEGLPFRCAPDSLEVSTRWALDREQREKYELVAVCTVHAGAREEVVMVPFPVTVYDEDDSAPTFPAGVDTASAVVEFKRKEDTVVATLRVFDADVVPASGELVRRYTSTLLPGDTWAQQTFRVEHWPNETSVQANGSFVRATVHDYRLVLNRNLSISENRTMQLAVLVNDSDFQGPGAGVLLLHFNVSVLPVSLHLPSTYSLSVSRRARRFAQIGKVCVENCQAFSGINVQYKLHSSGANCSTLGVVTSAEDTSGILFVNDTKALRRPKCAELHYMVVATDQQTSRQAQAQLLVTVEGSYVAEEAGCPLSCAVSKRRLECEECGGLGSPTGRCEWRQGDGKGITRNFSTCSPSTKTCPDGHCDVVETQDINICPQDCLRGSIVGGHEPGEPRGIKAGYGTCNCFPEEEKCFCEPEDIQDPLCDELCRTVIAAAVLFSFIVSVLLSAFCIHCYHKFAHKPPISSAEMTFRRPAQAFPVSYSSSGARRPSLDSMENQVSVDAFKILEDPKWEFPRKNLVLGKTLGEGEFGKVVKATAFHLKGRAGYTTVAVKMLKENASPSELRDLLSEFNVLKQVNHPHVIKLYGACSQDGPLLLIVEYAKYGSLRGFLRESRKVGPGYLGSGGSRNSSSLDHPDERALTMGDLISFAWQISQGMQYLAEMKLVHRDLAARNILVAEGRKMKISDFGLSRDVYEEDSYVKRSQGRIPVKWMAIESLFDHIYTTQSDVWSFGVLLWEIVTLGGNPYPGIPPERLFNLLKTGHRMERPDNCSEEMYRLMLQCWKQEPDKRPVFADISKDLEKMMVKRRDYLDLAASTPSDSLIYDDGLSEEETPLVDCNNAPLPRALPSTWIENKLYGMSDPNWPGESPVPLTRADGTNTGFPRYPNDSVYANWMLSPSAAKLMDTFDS

[6] = biological target: Macrophage-stimulating protein receptor (Homo sapiens, UniProt Q04912); test: Inhibition of RON (unknown origin)
Chain of Macrophage-stimulating protein receptor (Q04912 25-304 limits assumed): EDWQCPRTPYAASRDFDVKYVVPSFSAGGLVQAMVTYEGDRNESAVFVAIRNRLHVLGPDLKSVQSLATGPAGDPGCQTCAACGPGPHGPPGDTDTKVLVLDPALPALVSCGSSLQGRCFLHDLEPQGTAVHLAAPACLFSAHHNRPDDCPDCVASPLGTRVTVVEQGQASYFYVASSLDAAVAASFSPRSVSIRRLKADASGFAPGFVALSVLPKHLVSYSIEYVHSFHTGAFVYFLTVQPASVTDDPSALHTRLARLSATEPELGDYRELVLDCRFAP
Chain of Macrophage-stimulating protein receptor (Q04912 310-1400 limits assumed): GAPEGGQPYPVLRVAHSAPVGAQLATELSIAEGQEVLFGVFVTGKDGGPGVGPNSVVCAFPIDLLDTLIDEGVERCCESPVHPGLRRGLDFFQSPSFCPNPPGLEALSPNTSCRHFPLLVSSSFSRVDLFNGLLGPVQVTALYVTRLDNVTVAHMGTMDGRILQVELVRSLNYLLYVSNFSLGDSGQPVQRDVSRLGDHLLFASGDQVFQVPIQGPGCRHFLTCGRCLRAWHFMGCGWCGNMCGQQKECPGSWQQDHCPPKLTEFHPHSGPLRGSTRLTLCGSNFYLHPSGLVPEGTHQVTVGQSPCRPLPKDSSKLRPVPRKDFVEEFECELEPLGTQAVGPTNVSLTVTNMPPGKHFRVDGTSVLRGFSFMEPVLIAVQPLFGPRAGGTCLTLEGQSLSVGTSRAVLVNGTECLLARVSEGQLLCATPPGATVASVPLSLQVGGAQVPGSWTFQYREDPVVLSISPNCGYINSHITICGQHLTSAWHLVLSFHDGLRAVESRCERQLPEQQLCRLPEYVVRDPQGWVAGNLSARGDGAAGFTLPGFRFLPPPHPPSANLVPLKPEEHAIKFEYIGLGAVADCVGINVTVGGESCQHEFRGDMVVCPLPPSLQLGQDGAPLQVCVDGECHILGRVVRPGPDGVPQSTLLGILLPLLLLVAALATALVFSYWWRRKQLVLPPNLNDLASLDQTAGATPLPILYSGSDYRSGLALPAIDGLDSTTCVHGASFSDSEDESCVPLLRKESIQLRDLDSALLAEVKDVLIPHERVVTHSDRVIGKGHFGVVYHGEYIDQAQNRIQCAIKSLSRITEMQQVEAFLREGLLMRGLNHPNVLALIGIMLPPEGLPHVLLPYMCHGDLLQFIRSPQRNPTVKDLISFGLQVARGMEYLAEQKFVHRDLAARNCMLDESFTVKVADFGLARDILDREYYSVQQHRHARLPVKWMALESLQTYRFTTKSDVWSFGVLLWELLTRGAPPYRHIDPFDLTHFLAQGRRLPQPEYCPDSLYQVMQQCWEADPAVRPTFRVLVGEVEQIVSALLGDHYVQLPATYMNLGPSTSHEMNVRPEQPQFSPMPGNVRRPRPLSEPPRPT

[7] = biological target: Tyrosine-protein kinase ABL1 (Homo sapiens, UniProt P00519); test: Inhibition of ABL (unknown origin)
[8] = biological target: Receptor tyrosine-protein kinase erbB-2 (Homo sapiens, UniProt P04626); test: Inhibition of ERBB2 (unknown origin)
Chain of Receptor tyrosine-protein kinase erbB-2 (P04626 whole entry): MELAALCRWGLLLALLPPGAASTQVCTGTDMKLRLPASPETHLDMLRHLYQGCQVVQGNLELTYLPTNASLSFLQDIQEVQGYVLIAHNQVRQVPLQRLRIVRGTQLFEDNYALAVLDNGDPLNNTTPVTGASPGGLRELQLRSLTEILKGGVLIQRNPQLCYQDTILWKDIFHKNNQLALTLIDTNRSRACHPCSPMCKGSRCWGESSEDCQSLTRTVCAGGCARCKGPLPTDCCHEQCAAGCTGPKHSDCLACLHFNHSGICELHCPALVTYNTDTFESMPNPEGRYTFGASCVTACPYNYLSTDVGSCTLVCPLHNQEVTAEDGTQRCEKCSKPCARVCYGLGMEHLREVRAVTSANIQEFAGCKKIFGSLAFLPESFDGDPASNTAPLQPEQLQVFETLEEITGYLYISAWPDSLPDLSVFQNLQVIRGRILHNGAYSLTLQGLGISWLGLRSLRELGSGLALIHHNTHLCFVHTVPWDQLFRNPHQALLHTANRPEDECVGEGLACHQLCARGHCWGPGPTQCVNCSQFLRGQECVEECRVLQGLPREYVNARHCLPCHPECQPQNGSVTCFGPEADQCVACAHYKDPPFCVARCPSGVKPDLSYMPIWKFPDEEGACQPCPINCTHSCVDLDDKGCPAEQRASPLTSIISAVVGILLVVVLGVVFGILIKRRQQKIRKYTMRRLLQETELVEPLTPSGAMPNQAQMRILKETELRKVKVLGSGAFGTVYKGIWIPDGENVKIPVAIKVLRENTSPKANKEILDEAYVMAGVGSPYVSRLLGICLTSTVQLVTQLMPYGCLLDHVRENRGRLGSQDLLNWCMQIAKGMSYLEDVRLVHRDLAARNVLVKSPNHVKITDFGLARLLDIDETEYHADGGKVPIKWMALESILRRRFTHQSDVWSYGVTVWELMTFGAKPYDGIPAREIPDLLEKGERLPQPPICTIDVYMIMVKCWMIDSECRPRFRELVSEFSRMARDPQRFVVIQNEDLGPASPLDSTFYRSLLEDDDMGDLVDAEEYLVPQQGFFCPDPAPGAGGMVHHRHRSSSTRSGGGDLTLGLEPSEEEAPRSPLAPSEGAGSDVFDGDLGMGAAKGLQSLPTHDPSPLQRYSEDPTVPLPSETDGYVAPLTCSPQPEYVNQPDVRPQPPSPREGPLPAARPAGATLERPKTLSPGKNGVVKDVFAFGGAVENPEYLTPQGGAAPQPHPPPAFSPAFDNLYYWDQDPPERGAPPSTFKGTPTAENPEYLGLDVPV

[9] = biological target: T2, Tyrosine-protein kinase receptor TYRO3 (Homo sapiens, UniProt Q06418); test: Inhibition of TYRO3 (unknown origin)
T2 sequence (Q06418 whole entry): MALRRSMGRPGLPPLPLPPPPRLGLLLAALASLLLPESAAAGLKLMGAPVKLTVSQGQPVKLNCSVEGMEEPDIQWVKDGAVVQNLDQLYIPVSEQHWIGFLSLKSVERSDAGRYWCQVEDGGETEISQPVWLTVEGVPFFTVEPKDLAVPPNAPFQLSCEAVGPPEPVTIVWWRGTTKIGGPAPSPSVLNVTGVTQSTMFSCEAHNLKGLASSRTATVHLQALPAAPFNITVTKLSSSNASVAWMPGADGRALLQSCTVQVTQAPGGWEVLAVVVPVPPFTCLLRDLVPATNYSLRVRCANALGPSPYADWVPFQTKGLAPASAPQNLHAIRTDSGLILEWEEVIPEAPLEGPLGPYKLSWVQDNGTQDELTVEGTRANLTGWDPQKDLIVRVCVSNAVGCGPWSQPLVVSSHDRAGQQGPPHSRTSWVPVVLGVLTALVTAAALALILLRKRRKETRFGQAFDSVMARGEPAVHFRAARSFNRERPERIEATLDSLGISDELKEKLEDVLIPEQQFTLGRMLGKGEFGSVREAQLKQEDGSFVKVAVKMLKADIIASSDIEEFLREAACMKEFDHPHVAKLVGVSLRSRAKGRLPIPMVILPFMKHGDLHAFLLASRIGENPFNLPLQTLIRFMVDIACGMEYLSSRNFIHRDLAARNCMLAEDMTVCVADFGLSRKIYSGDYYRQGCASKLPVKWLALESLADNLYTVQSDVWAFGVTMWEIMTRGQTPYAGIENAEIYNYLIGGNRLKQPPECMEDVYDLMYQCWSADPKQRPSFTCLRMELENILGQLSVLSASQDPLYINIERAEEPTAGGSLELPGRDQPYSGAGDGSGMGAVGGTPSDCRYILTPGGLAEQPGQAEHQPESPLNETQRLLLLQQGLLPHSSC

[10] = biological target: T1, Hepatocyte growth factor receptor; test: Inhibition of c-MET (unknown origin) after 60 mins by ELISA
[11] = biological target: Receptor tyrosine-protein kinase erbB-4 (Homo sapiens, UniProt Q15303); test: Inhibition of ERBB4 (unknown origin)
[12] = biological target: Fibroblast growth factor receptor 1 (Homo sapiens, UniProt P11362); test: Inhibition of FGFR1 (unknown origin)
[13] = biological target: Platelet-derived growth factor receptor alpha (Homo sapiens, UniProt P16234); test: Inhibition of PDGFRalpha (unknown origin)
[14] = biological target: Epidermal growth factor receptor (Homo sapiens, UniProt P00533); test: Inhibition of EGFR (unknown origin)
[15] = biological target: Epidermal growth factor receptor (Homo sapiens, UniProt P00533, L858R/T790M); test: Inhibition of EGFR T790M/L858R double mutant (unknown origin); type: protein assay
[16] = biological target: Vascular endothelial growth factor receptor 2 (Homo sapiens, UniProt P35968); test: Inhibition of KDR (unknown origin)
[17] = biological target: Vascular endothelial growth factor receptor 1 (Homo sapiens, UniProt P17948); test: Inhibition of FLT1 (unknown origin)

Structure (SMILES): C[C@@H](Oc1c[nH]c(=O)c(C(=O)Nc2cnn(CCO)c2)c1)c1c(Cl)ccc(F)c1Cl
- IC50 [3]: 1.1 µM

Structure (SMILES): C[C@@H](Oc1c[nH]c(=O)c(C(=O)Nc2ccc(OCCN3CCOCC3)cc2)c1)c1c(Cl)ccc(F)c1Cl
- IC50 [3]: 5.9 µM

Structure (SMILES): C[C@@H](Oc1c[nH]c(=O)c(C(=O)Nc2cnn(C)c2)c1)c1c(Cl)ccc(F)c1Cl
- IC50 [3]: 9.8 µM

Structure (SMILES): C[C@@H](Oc1c[nH]c(=O)c(C(=O)Nc2ccc(CN3CCN(C)CC3)cc2)c1)c1c(Cl)ccc(F)c1Cl
- IC50 [3]: 1.1 µM

Structure (SMILES): C[C@@H](Oc1c[nH]c(=O)c(C(=O)Nc2ccc3c(c2)CN(CCN(C)C)C3=O)c1)c1c(Cl)ccc(F)c1Cl
- IC50 [3]: 2.6 µM

Structure (SMILES): C[C@@H](Oc1c[nH]c(=O)c(C(=O)Nc2ccc(N3CCN(C)CC3)nc2)c1)c1c(Cl)ccc(F)c1Cl
- IC50 [3]: 3.9 µM

Structure (SMILES): C[C@@H](Oc1c[nH]c(=O)c(C(=O)Nc2cnn(C3CCNCC3)c2)c1)c1c(Cl)ccc(F)c1Cl
- IC50 [3]: 1 µM

Further lines, with some results ahead:

- inhibition [1]: < 50%
Structure (SMILES): C[C@@H](Oc1c[nH]c(=O)c(C(=O)NC2CCN(C)CC2)c1)c1c(Cl)ccc(F)c1Cl

- inhibition [1]: < 50%
Structure (SMILES): C[C@@H](Oc1c[nH]c(=O)c(C(=O)NCc2ccc(N3CCOCC3)cc2)c1)c1c(Cl)ccc(F)c1Cl

- IC50 [2]: 0.00069 µM
Structure (SMILES): C[C@@H](Oc1cc(C(=O)Nc2ccc(C(=O)N3CCN(C)CC3)cc2)nnc1N)c1c(Cl)ccc(F)c1Cl

- inhibition [1]: < 50%
Structure (SMILES): C[C@@H](Oc1c[nH]c(=O)c(C(=O)NCc2ccc(NS(C)(=O)=O)cc2)c1)c1c(Cl)ccc(F)c1Cl

- inhibition [4]: inactive
Structure (SMILES): CCN1CCN(c2ccc(NC(=O)c3cc(O[C@H](C)c4c(Cl)ccc(F)c4Cl)c[nH]c3=O)c(OC)c2)CC1

- inhibition [4]: inactive
Structure (SMILES): COc1ncc(O[C@H](C)c2c(Cl)ccc(F)c2Cl)cc1C(=O)Nc1ccc(N2CCN(C)CC2)cc1

- IC50 [5]: > 1 µM
- IC50 [6]: 0.446 µM
- IC50 [7]: 0.281 µM
- IC50 [8]: > 1 µM
- IC50 [9]: > 1 µM
- IC50 [10]: 0.012 µM
- IC50 [11]: > 1 µM
- IC50 [12]: > 1 µM
- IC50 [13]: > 1 µM
- IC50 [14]: > 1 µM
- IC50 [15]: > 1 µM
- IC50 [16]: > 1 µM
- IC50 [17]: > 1 µM
Structure (SMILES): C[C@@H](Oc1c[nH]c(=O)c(C(=O)Nc2ccc(N3CCN(C)CC3)cc2)c1)c1c(Cl)ccc(F)c1Cl
- IC50 [3]: 2.2 µM
